# From patent US10183053B1, “Multi-component formulations” (priority 2017, dated 2019)
# Columns and labels:
# [1] = test system: human stem cell derived neurons; test: Cell viability of human stem cell derived neurons treated with multi-component formulations (Hoechst/propidium iodide, ArrayScan VTI); type: cell-based
# Method: Cryopreserved human stem cell derived neurons obtained from PhoenixSongs Biologicals were thawed and plated at a density of 12000 cells per well in a 384-well PDL/laminin coated plate. The neurons were maintained in a humidified environment at 37° C. with 5% CO2 for six days with periodic media changes before experimental procedures were performed. […] Cells were dosed in triplicate with 10-point dose response curves to determine if there was any protective effect (improved survival of cells) or toxicity with the test compounds versus the untreated cells. A positive control (chlorpromazine) was also used to assess cytotoxicity response in these cells. After a three-day incubation with test compositions, the cells were stained with Hoechst and propidium iodide and read on an ArrayScan VTI to determine cell viability. Results were normalized to vehicle and graphed using GraphPad Prism. […]
# primary chicken neurons = test: MTT cell viability assay in primary chicken neurons; type: cell-based; settings: for concentration above which cell viability declined: compared to vehicle control, FIG. 5, FIG. 6; for Cell viability, Mean: no MSM nor FDP, 48 h
# Method: Fertilized chicken eggs were stored under turning at 37.8° C. and 55% humidity until embryonic day eight. Embryos were transferred to a plastic dish and decapitated. Both hemispheres were removed, collected and cleaned from any loose tissue. Hemispheres were mechanically dissociated and 4.8×10^4 cells per well (96-well plates) were seeded in a volume of 160 μL. The cell culture medium consisted of Dubelcco's Modified Eagle's Medium with […], 5% Nu Serum, 0.01% gentamycin and 2 mM L-glutamine. Cultures were maintained at 37° C., 95% humidity and 5% CO2.
# Test compositions and vehicle controls were applied to chicken neurons at day-in-vitro 8 for 48 h. On day-in-vitro 10 the viability of neurons was determined according to MTT cell viability assay using a plate reader (570 nm). That assay allows the measurement of the mitochondrial dehydrogenase activity, which reduces yellow MTT to dark blue formazan crystals. Since this reaction is catalyzed in living cells only, this assay is used for the determination of cell viability. MTT solution was added to each well in a final concentration of 0.5 mg/mL. After two hours the MTT-containing medium is aspired. Cells were lysed in 3% SDS and the formazan crystals were dissolved in isopropanol/HCl. Optical density was measured with a plate reader at 570 nm. Cell survival rage was expressed as optical density (OS). Values were calculated as percent of control values (vehicle control, which is medium).
# Using the same protocol as in Example 2, primary chicken neurons were treated with varying concentrations of methylsulfonylmethane and/or fructose 1,6-diphosphate. Cell viability was determined with the MTT assay.
# Using the protocol of Example 2, a formulation containing methylsulfonylmethane (0.1 μM), D-fructose 1,6-diphosphate trisodium salt hydrate (1 μM), and rutin (0.001 μM) was tested for cell viability in primary chicken neurons. Vehicle control (medium) and methylsulfonylmethane with fructose 1,6-diphosphate compositions were also tested. The results appear in FIG. 12.
structure (smiles),measurement,setting,value
"CN(C)CCCN1c2ccccc2Sc2ccc(Cl)cc21 [Chlorpromazine, chlorpromazine]",IC50,"[1]; Homo sapiens, Neuron, 72 h, three-day incubation, formulations in medium with MSM 0.1 μM and FDP 1 μM, chlorpromazine without MSM and FDP, read-out: IC50 for Cell Loss",3.8 µM
same,neuron cell toxicity / safety (in words),[1]; at comparable concentrations,relatively high neuron cell toxicity
"O=C(COP(=O)(O)O)[C@@H](O)[C@H](O)[C@H](O)COP(=O)(O)O [FDP, fructose 1,6-diphosphate]",concentration above which cell viability declined,primary chicken neurons,above 0.1 mM
"CS(C)(=O)=O [MSM, methylsulfonylmethane]",concentration above which cell viability declined,primary chicken neurons,above 5 mM
"C[C@@H]1O[C@@H](OC[C@H]2O[C@@H](Oc3c(-c4ccc(O)c(O)c4)oc4cc(O)cc(O)c4c3=O)[C@H](O)[C@@H](O)[C@@H]2O)[C@H](O)[C@H](O)[C@H]1O [Rutin, quercetin-3-O-rutinoside]","Cell viability, Mean","primary chicken neurons; rutin 0.001 (μM), vehicle alone",96.7% of control
same,"Cell viability, Mean","primary chicken neurons; rutin 0.01, vehicle alone",99.7% of control
same,"Cell viability, Mean","primary chicken neurons; rutin 0.1, vehicle alone",98.1% of control
same,"Cell viability, Mean","primary chicken neurons; rutin 1, vehicle alone",97.7% of control
same,"Cell viability, Mean","primary chicken neurons; rutin 10, vehicle alone",100.2% of control
